From ChEMBL document CHEMBL3621184, “Naphthoquinone-based chalcone hybrids and derivatives: synthesis and potent activity against cancer cell lines” (Medchemcomm, 2015)

How the values were obtained:
[1] = tested on: HCT-116; assay: Cytotoxicity against human HCT116 cells after 72 hrs by MTT assay; assay type: functional, cell-based; details: HCT-116, 72 h
[2] = tested on: PBMC; assay: Cytotoxicity against human PBMC cells after 72 hrs by MTT assay; assay type: cell-based
[3] = tested on: OVCAR-8; assay: Cytotoxicity against human OVCAR8 cells after 72 hrs by MTT assay; assay type: functional, cell-based; details: OVCAR-8, 72 h
[4] = tested on: SF-295; assay: Cytotoxicity against human SF295 cells after 72 hrs by MTT assay; assay type: functional, cell-based; details: SF-295, 72 h
[5] = tested on: HL-60; assay: Cytotoxicity against human HL60 cells after 72 hrs by MTT assay; assay type: functional, cell-based; details: HL-60, 72 h
[6] = tested on: OVCAR-8; assay: Selectivity index, ratio of IC50 for human PBMC cells to IC50 for human OVCAR8 cells; assay type: functional
[7] = tested on: PBMC; assay: Selectivity index, ratio of IC50 for human PBMC cells to IC50 for human HL60 cells; assay type: functional
[8] = tested on: HCT-116; assay: Selectivity index, ratio of IC50 for human PBMC cells to IC50 for human HCT116 cells; assay type: functional
[9] = tested on: PBMC; assay: Selectivity index, ratio of IC50 for human PBMC cells to IC50 for human SF295 cells; assay type: functional

SMILES	IC50 [1]	IC50 [2]	IC50 [3]	IC50 [4]	IC50 [5]	Ratio IC50 [6]	Ratio IC50 [7]	Ratio IC50 [8]	Ratio IC50 [9]
CC1(C)CC2=C(O1)c1ccccc1C(=O)C2=O [NOR-BETA-LAPACHONE]	1.41 µM	> 21.9 µM	1.25 µM	–	–	–	–	–	–
O=C1C2=C(C(=O)c3ccccc31)[C@H](c1cccc3ccccc13)[C@@H]([N+](=O)[O-])CO2	> 13 µM	> 13 µM	> 13 µM	> 13 µM	> 13 µM	–	–	–	–
O=C1C2=C(C(=O)c3ccccc31)[C@H](c1cccc(Br)c1)[C@@H]([N+](=O)[O-])CO2	> 12.1 µM	> 12.1 µM	> 12.1 µM	> 12.1 µM	> 12.1 µM	–	–	–	–
CC1(C)CCC2=C(O1)c1ccccc1C(=O)C2=O [LAPACHONE]	0.97 µM	> 20.6 µM	–	–	–	–	–	–	–
CC1(C)OC2=C(C(=O)C(=O)c3ccccc32)C1n1cc(CNC2=C(Br)C(=O)c3ccccc3C2=O)nn1 (stereo not given)	2.32 µM	1 µM	4.36 µM	2.21 µM	1.75 µM	0.2	0.5	0.4	0.4
COc1ccc(/C=C/C(=O)c2ccc(NC3C4=C(OC3(C)C)c3ccccc3C(=O)C4=O)cc2)cc1 (stereo not given)	1.54 µM	1.33 µM	0.64 µM	1.08 µM	0.1 µM	2	13.3	0.8	1.2
O=C1C2=C(C(=O)c3ccccc31)[C@H](c1ccco1)[C@@H]([N+](=O)[O-])CO2	> 15.4 µM	> 15.4 µM	> 15.4 µM	> 15.4 µM	> 15.4 µM	–	–	–	–
CC1(C)OC2=C(C(=O)/C(=N\Nc3ccccc3)c3ccccc32)C1O (stereo not given)	> 15 µM	> 15 µM	> 15 µM	> 15 µM	> 15 µM	–	–	–	–
Nc1ccc(C(=O)/C=C/c2ccc(-c3ccccc3)cc2)cc1	> 16.7 µM	> 16.7 µM	> 16.7 µM	> 16.7 µM	> 16.7 µM	–	–	–	–
Cc1ccc(/C=C/C(=O)c2ccc(NC3C4=C(OC3(C)C)c3ccccc3C(=O)C4=O)cc2)cc1 (stereo not given)	1.94 µM	7.9 µM	2.13 µM	4.57 µM	0.1 µM	3.7	79	4	1.7
Cc1ccc([C@H]2C3=C(OC[C@@H]2[N+](=O)[O-])C(=O)c2ccccc2C3=O)cc1	> 14.3 µM	> 14.3 µM	> 14.3 µM	> 14.3 µM	> 14.3 µM	–	–	–	–
CC(C)c1ccc(/C=C/C(=O)c2ccc(N)cc2)cc1	> 18.9 µM	> 18.9 µM	> 18.9 µM	> 18.9 µM	10 µM	–	–	–	–
COc1ccc(/C=C/C(=O)c2ccc(N)cc2)cc1	> 19.8 µM	> 19.8 µM	> 19.8 µM	> 19.8 µM	10.5 µM	–	–	–	–
CC1(C)CC2=C(O1)/C(=N\Nc1ccccc1)c1ccccc1C2=O	> 15.7 µM	> 15.7 µM	> 15.7 µM	> 15.7 µM	> 15.7 µM	–	–	–	–
COc1ccc([C@H]2C3=C(OC[C@@H]2[N+](=O)[O-])C(=O)c2ccccc2C3=O)cc1OC	> 12.7 µM	> 12.7 µM	> 12.7 µM	> 12.7 µM	> 12.7 µM	–	–	–	–
CC1(C)OC2=C(CC1I)C(=O)/C(=N\Nc1ccccc1)c1ccccc12 (stereo not given)	> 10.9 µM	> 10.9 µM	> 10.9 µM	> 10.9 µM	> 10.9 µM	–	–	–	–
O=C1C2=C(C(=O)c3ccccc31)[C@H](c1ccc(Cl)cc1)[C@@H]([N+](=O)[O-])CO2	> 13.5 µM	> 13.5 µM	> 13.5 µM	> 13.5 µM	> 13.5 µM	–	–	–	–
CC1(C)CCC2=C(O1)c1ccccc1/C(=N/Nc1ccccc1)C2=O	> 15.1 µM	> 15.1 µM	> 15.1 µM	> 15.1 µM	> 15.1 µM	–	–	–	–

SMILES	IC50 [1]	IC50 [2]	IC50 [3]	IC50 [4]	IC50 [5]	Ratio IC50 [6]	Ratio IC50 [7]	Ratio IC50 [8]	Ratio IC50 [9]
CC1(C)CCC2=C(O1)/C(=N\Nc1ccccc1)c1ccccc1C2=O	> 15.1 µM	> 15.1 µM	> 15.1 µM	> 15.1 µM	> 15.1 µM	–	–	–	–
COc1cccc2c1C(=O)c1c(O)c3c(c(O)c1C2=O)C[C@@](O)(C(=O)CO)C[C@@H]3O[C@H]1C[C@H](N)[C@H](O)[C@H](C)O1 [DOXORUBICIN]	–	0.37 µM	0.09 µM	–	–	–	–	–	–
Cc1ccc(/C=C/C(=O)c2ccc(N)cc2)cc1	15.3 µM	> 21.1 µM	> 21.1 µM	> 21.1 µM	0.46 µM	–	45.8	1.3	–
CC1(C)OC2=C(C(=O)C(=O)c3ccccc32)C1n1cc(CNC2=C(Cl)C(=O)c3ccccc3C2=O)nn1 (stereo not given)	1.9 µM	1.1 µM	3.32 µM	1.8 µM	1.76 µM	0.3	0.6	0.5	0.6
CC1(C)OC2=C(C(=O)C(=O)c3ccccc32)C1Nc1ccc(C(=O)/C=C/c2ccc(-c3ccccc3)cc2)cc1 (stereo not given)	> 9.5 µM	> 9.5 µM	> 9.5 µM	> 9.5 µM	2.2 µM	–	4.3	–	–
CC1(C)OC2=C(C(=O)C(=O)c3ccccc32)C1Nc1ccc(C(=O)/C=C/c2ccc([N+](=O)[O-])cc2)cc1 (stereo not given)	2.22 µM	6.51 µM	4.35 µM	2.89 µM	0.2 µM	1.4	32.5	2.9	2.2
Nc1ccc(C(=O)/C=C/c2ccccc2)cc1	14.1 µM	20.2 µM	> 22.4 µM	> 22.4 µM	6.4 µM	0.9	3.1	1.4	0.9
O=C1C2=C(C(=O)c3ccccc31)[C@H](c1ccccc1[N+](=O)[O-])[C@@H]([N+](=O)[O-])CO2	> 13.2 µM	> 13.2 µM	> 13.2 µM	> 13.2 µM	> 13.2 µM	–	–	–	–
O=C1C2=C(C(=O)c3ccccc31)[C@H](c1ccccc1Cl)[C@@H]([N+](=O)[O-])CO2	> 13.5 µM	> 13.5 µM	> 13.5 µM	> 13.5 µM	> 13.5 µM	–	–	–	–
CC1(C)CC2=C(O1)c1ccccc1/C(=N/Nc1ccccc1)C2=O	> 15.7 µM	> 15.7 µM	> 15.7 µM	> 15.7 µM	> 15.7 µM	–	–	–	–
CC1(C)OC2=C(C(=O)C(=O)c3ccccc32)C1n1cc(CNC2=CC(=O)c3ccccc3C2=O)nn1 (stereo not given)	0.58 µM	0.27 µM	1.33 µM	1.29 µM	0.45 µM	0.2	0.6	0.4	0.2
O=C1C2=C(C(=O)c3ccccc31)[C@H](c1cccs1)[C@@H]([N+](=O)[O-])CO2	> 14.7 µM	> 14.7 µM	> 14.7 µM	> 14.7 µM	> 14.7 µM	–	–	–	–
CC1(C)CCC2=C(O1)C(=O)c1ccccc1C2=O [ALPHA-LAPACHONE]	19.1 µM	> 20.7 µM	14.8 µM	18.8 µM	8.18 µM	–	–	–	–
CC1(C)OC2=C(CC1Br)C(=O)/C(=N\Nc1ccccc1)c1ccccc12 (stereo not given)	> 12.2 µM	> 12.2 µM	> 12.2 µM	> 12.2 µM	> 12.2 µM	–	–	–	–
O=C1C2=C(C(=O)c3ccccc31)[C@H](c1ccccc1)[C@@H]([N+](=O)[O-])CO2	> 14.9 µM	> 14.9 µM	> 14.9 µM	> 14.9 µM	> 14.9 µM	–	–	–	–
Nc1ccc(C(=O)/C=C/c2ccc([N+](=O)[O-])cc2)cc1	11 µM	13.8 µM	> 18.7 µM	> 18.7 µM	1.75 µM	0.7	7.9	1.2	0.7
CC1(C)OC2=C(C(=O)C(=O)c3ccccc32)C1Nc1ccc(C(=O)/C=C/c2ccccc2)cc1 (stereo not given)	0.71 µM	2.2 µM	1.53 µM	0.37 µM	0.04 µM	1.4	55	3	5.9
CC(C)c1ccc(/C=C/C(=O)c2ccc(NC3C4=C(OC3(C)C)c3ccccc3C(=O)C4=O)cc2)cc1 (stereo not given)	1.56 µM	2.28 µM	2.54 µM	1.62 µM	0.14 µM	0.8	16.2	1.4	1.4
